Article PMC9828493, “Design, Synthesis, and in Vitro Evaluation of 4‐(4‐Hydroxyphenyl)piperazine‐Based Compounds Targeting Tyrosinase” (Chemmedchem, 2022)
“And” between values parts separate entries of the source, which are not always exact repeats. Identical values can stand only once. Like-named read-outs stand apart in the source and are kept apart here.

How the values were obtained:
[1] = molecular target: T1, TYR from Agaricus bisporus (AbTYR) (Agaricus bisporus, UniProt C7FF04); design: purchased Sigma Chemical Co. (St. Louis, MO, USA); conditions: previous paper; read-out: IC50, inhibition of AbTYR; cited from earlier work
[2] = test system: tyrosinase activity in α‐MSH‐stimulated B16F10 cells; test: Tyrosinase zymography (L-DOPA staining) in α-MSH-stimulated B16F10 cells; type: cell-based, Murine; conditions: Mus musculus, B16-F10, α-MSH (100 nM)-stimulated B16F10 cells, 48 h, read-out: inhibition of tyrosinase activity / melanogenesis
Procedure: ImageJ software was used to determine the intensity of bands.
A day after seeding the B16F10 cells (6×10^4 cells/mL) the culture medium was substituted by fresh one supplemented with 100 nM α‐MSH.
After incubation for 48 h, cells were washed and lysed using phosphate buffer (25 mM, pH 6.8) containing Triton X‐100 (1 %) and phenylmethyl‐sulfonyl fluoride (0.1 mM). Cellular lysates were centrifugated at 13000 rpm for 20 min at 4 °C. The protein content was determined by Bradford method and BSA was used as standard.
SDS‐polyacrylamide gel electrophoresis was used to resolve the protein extracts previously mixed with 10 mM Tris‐HCl buffer, pH 7.0, containing 1 % SDS, without mercaptoethanol.
After running, gel was rinsed in phosphate buffer (0.1 M, pH 7.0) and equilibrated for 30 min twice. […] Tyrosinase activity was visualized in the gel as dark melanin‐containing bands

[3] = positive control; read-out: EC50 [μM], antioxidant activity (ABTS); cited from earlier work
[4] = molecular target: T1, TYR from Agaricus bisporus (AbTYR); test: Kinetic analysis of AbTYR inhibition (Lineweaver-Burk plots, L-DOPA); conditions: L-DOPA 0.6–5 mM, three inhibitor concentrations, phosphate buffer pH 6.8
Procedure: Kinetics studies were performed in presence of three different concentrations of selected inhibitors, L‐DOPA (0.6–5 mM) and AbTYR in phosphate buffer (0.05 M, pH 6.8).
(§1) absorbance was measured after 60 or 1 min of incubation time in the reaction mixture containing
(§2) L-tyrosine or L-DOPA, respectively. The inhibitory activity was expressed as inhibition percentage
(§3) calculated by interpolation of the dose-response curves. Kojic acid [5-hydroxy-2-(hydroxymethyl)-
(§4) 4H-pyran-4-one], a fungal secondary metabolite used as skin whitening agent, was employed as a
(§5) positive standard (10–50 μM). A spectrophotometer (Agilent Cary 60 UV-Vis Spectrophotometer)
(§6) The inhibition kinetics on the tyrosinase were studied using Lineweaver-Burk double reciprocal
(§7) plots. The reaction mixture consisted of four different concentrations of the substrate L-DOPA
(§8) (0.6–5 mM), and mushroom tyrosinase in phosphate buffer (0.05 M, pH 6.8). Three different
(§9) concentrations were used for the analysis. Preincubation and measurement time were the same
(§10) as discussed in mushroom tyrosinase inhibition assay. The Michaelis-Menten constant (Km) and
(§11) maximal velocity (Vmax) of tyrosinase were determined by Lineweaver-Burk plots.

[5] = molecular target: T1, TYR from Agaricus bisporus (AbTYR); test: Inhibition of diphenolase activity of AbTYR (L-DOPA as substrate); conditions: for IC50: IC50 [μM]±SD, inhibition of diphenolase activity of AbTYR, L-DOPA substrate, three replicates;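 for all read-outs here: absorbance measured spectrophotometrically with L-DOPA as substrate, inhibition expressed as percent relative to control sample, IC50 interpolated from dose-response curves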
Procedure: as §1, §2, §3, §4, §5, §6, §7, §8, §9, §10, §11

B16F10 cells = test: Cell viability assay (MTT); type: cell-based, Murine; conditions: 48 h; for cytotoxic effect (MTT): until a concentration of 10 μM
Procedure: Murine melanoma B16F10 cells (CRL‐6475) were cultured as previous reported.[17]
3‐(4,5‐Dimethylthiazol‐2‐yl)‐2,5‐diphenyltetrazolium bromide (MTT) was used to measure the cells viability. Cells were seeded in 96‐well plates for 24 hours with a density of 5x10^3 for well. Cells were then treated for 48 h with compounds (ranging from 4 μM to 100 μM). After incubation at 37 °C and 5 % of CO2, 100 μL of MTT reagent were added to the cells and incubated 3 h at 37 °C. After adding DMSO the absorbance was determined at 560 nm. The amount of living cells in treated samples relative to untreated controls (100 %) provided the cell viability. The mean value and standard deviation (SD) were calculated from triplicate experiments.
different concentrations of compounds (4-100 μM) and their viability was evaluated by MTT assay. Data
represent mean ± SD of triplicate experiments.

[6] = ABTS radical scavenging antioxidant assay; conditions: mean ± SD of three independent experiments
Procedure: ABTS [2,20‐azinobis‐(3‐ethylbenzothiazoline‐6‐sulfonic acid)] assay was used to determine the total free radical‐scavenging capacity of compounds. 6‐hydroxy‐2,5,7,8‐tetramethylchromane‐2‐carboxylic acid (Trolox) was used as the reference antioxidant.[15]
The ABTS⋅^+ method is based on the capacity of an antioxidant to scavenge the free ABTS⋅^+. To produce this radical an aqueous mixture of 7 mM ABTS with 2.45 mM potassium persulfate was required.
The ABTS solution was kept in the dark, at room temperature, for 24 h before use. The ABTS⋅^+ mixture was diluted, and each compound (10 μL) was added to solution. After 1 min of incubation the absorbance was recorded at 734 nm. Afterwards the decrease in A734 was calculated and referred to the Trolox standard curve. Antioxidant activity was expressed as concentration of the compound to give a 50 % reduction in the original absorbance (EC50).

[7] = molecular target: T1, TYR from Agaricus bisporus (AbTYR); test: Inhibition of monophenolase activity of AbTYR (L-Tyr as substrate); type: biochemical; design: purchased Sigma Chemical Co. (St. Louis, MO, USA); conditions: 40 μM (Figure S69)
Procedure: Mushroom tyrosinase inhibition assay
6.8). […] Subsequently, 0.05 mL of
L-tyrosine or L-DOPA, respectively.
respect to control sample.
positive standard (10–50 μM).
was used for absorbance measurements.
Kinetic analysis of the tyrosinase inhibition

T1 sequence (C7FF04 1-392 limits assumed): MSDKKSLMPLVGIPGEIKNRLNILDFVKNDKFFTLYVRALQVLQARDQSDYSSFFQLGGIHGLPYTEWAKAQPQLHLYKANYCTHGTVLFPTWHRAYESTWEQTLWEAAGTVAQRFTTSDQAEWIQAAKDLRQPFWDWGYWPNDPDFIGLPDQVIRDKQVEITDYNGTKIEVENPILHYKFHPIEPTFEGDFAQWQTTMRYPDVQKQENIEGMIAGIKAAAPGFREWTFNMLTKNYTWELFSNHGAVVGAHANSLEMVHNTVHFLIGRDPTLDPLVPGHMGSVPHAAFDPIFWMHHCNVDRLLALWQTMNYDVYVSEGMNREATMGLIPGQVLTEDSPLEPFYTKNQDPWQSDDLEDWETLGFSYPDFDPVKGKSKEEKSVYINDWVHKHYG

Row | melting point [°C] | EC50 [6] [µM] | inhibitory effect on monophenolase activity of AbTYR [7] | SMILES | mechanism of inhibition of AbTYR [4] | IC50 [5] | cytotoxic effect (MTT) (B16F10 cells) | also measured
1 | – | – | – | O=C(CN1CCC(Cc2ccccc2)CC1)N1CCN(c2ccc(O)cc2)CC1 [A, 2‐(4‐benzyl‐1‐piperidinyl)‐1‐[4‐(4‐hydroxyphenyl)piperazin‐1‐yl]ethenone] | – | – | – | IC50 [1]: 3.8 µM
2 | – | – | – | O=c1cc(CO)occ1O [KA, kojic acid, reference compound] | – | – | – | inhibition at 25 µM [2]: 17%
3 | – | – | – | Cc1c(C)c2c(c(C)c1O)CCC(C)(C(=O)O)O2 (stereo not drawn) [Trolox, 6‐hydroxy‐2,5,7,8‐tetramethylchromane‐2‐carboxylic acid] | – | – | – | EC50 [3]: 13 ± 1.1 µM
4 | – | – | – | Oc1ccc(N2CCNCC2)cc1 [compound 1, 4‐(1‐piperazinyl)phenol] | competitive inhibitor | 28.9 ± 4.9 µM | – | –
5 | 169 to 170 | 13.2 ± 0.5 | active inhibitors | O=C(c1ccccc1Cl)N1CCN(c2ccc(O)cc2)CC1 [compound 7, (4‐(4‐Hydroxyphenyl)piperazin‐1‐yl)(2‐chlorophenyl)methanone] | – | < 5 µM and 2.6 µM | no cytotoxic effect | –
6 | 177 to 178 | 9 ± 0.3 | active inhibitors | O=C(c1ccc(Cl)cc1Cl)N1CCN(c2ccc(O)cc2)CC1 [compound 10, (4‐(4‐Hydroxyphenyl)piperazin‐1‐yl)(2,4‐dichlorophenyl)methanone] | competitive inhibitors | 1.5 ± 0.1 µM | no cytotoxic effect | inhibition at 1 µM ([2]; 1 μM): 44%; inhibition at 10 µM ([2]; 10 μM): 73%; inhibition at 25 µM [2]: 88%; cell viability (MTT) (B16F10 cells; until 25 μM): good cell viability
7 | 180 to 181 | 13.2 ± 1.1 | active inhibitors | O=C(c1ccccc1Br)N1CCN(c2ccc(O)cc2)CC1 [compound 11, (4‐(4‐Hydroxyphenyl)piperazin‐1‐yl)(2‐bromophenyl)methanone] | – | < 5 µM and 4.5 µM | no cytotoxic effect | –

Row | SMILES | melting point [°C] | EC50 [6] [µM] | inhibitory effect on monophenolase activity of AbTYR [7] | mechanism of inhibition of AbTYR [4] | IC50 [5] | cytotoxic effect (MTT) (B16F10 cells) | also measured
8 | O=C(c1ccccc1C(F)(F)F)N1CCN(c2ccc(O)cc2)CC1 [compound 17, (4‐(4‐Hydroxyphenyl)piperazin‐1‐yl)(2‐(trifluoromethyl)phenyl)methanone] | 152 to 153 | 9 ± 0.9 | active inhibitors | – | 4.6 ± 0.3 µM | no cytotoxic effect | –
9 | COc1ccccc1C(=O)N1CCN(c2ccc(O)cc2)CC1 [compound 21, [4‐(4‐Hydroxyphenyl)piperazin‐1‐yl](2‐methoxyphenyl)methanone] | – | 9.2 ± 0.2 | active inhibitors | competitive inhibitors | 3.5 ± 0.2 µM | no cytotoxic effect | fold more potent than reference compound KA [5]: about 3.5 fold
